Assay results reported in US7390806B2, “Antibiotics containing borinic acid complexes and methods of use” (Anacor Pharmaceuticals, Inc., priority 2002, dated 2008).
≈ marks a conversion by molar mass, not a printed value. Read-outs that look alike come from different tables or passages of the source.

Columns and labels:
S. aureus ATCC 29213 = assay: MIC determination, S. aureus ATCC 29213; assay type: cell-based, Staphylococcus aureus; conditions: for MIC: Staphylococcus aureus, read-out: MIC S. aureus ATCC 29213
E. faecalis ATCC 29212 = assay: MIC determination, E. faecalis ATCC 29212; assay type: cell-based, Enterococcus faecalis; conditions: for MIC: Enterococcus faecalis, read-out: MIC E. faecalis ATCC 29212
E. faecium CT-26 = assay: MIC determination, E. faecium CT-26; assay type: cell-based, Enterococcus faecium; conditions: for MIC: Enterococcus faecium, read-out: MIC E. faecium CT-26
S. pneumoniae ATCC 6301 = assay: MIC determination, S. pneumoniae ATCC 6301; assay type: cell-based, Streptococcus pneumoniae; conditions: for MIC S. pneumoniae ATCC 6301: Table 1; for MIC: Streptococcus pneumoniae
M. tuberculosis H37Rv = assay: Anti-mycobacterium in vitro activity, H37Rv; assay type: cell-based, Mycobacterium tuberculosis; conditions: Sensitive strain; for MIC: Mycobacterium tuberculosis, H37RV
[1] = system: S. epidermidis ATCC 12228; assay: MIC determination, S. epidermidis ATCC 12228; assay type: cell-based, Staphylococcus epidermidis; conditions: for MIC: Staphylococcus epidermidis, read-out: MIC S. epidermidis ATCC 12228
H. influenzae ATCC 49766 = assay: MIC determination, H. influenzae ATCC 49766; assay type: cell-based, Haemophilus influenzae; conditions: Table 2
[2] = system: M. catarrhalis ATCC 25238; assay: MIC determination, M. catarrhalis ATCC 25238; assay type: cell-based; conditions: for MIC M. catarrhalis ATCC 25238: Table 1
[3] = system: Candida albicans ATCC 90028; assay: Antifungal in vitro MIC, Candida albicans; assay type: cell-based; conditions: percent inhibition >= 80%
[4] = system: Microsporum canis ATCC 10214; assay: Antifungal in vitro MIC, Microsporum canis; assay type: cell-based; conditions: percent inhibition >= 80%
[5] = system: Trichophyton mentagrophytes ATCC 10270; assay: Antifungal in vitro MIC, Trichophyton mentagrophytes; assay type: cell-based; conditions: percent inhibition >= 80%
[6] = system: Candida parapsilosis ATCC 22019; assay: Antifungal in vitro MIC, Candida parapsilosis; assay type: cell-based; conditions: percent inhibition >= 80%
[7] = system: Candida glabrata ATCC 15126; assay: Antifungal in vitro MIC, Candida glabrata; assay type: cell-based; conditions: percent inhibition >= 80%
[8] = system: Aspergillus fumigatus ATCC 204305; assay: Antifungal in vitro MIC, Aspergillus fumigatus; assay type: cell-based; conditions: percent inhibition >= 80%

Oc1cccc2cccnc12 [Compound 72, 8-hydroxyquinoline]
MIC S. aureus ATCC 29213 (S. aureus ATCC 29213; Table 1): 4 micrograms per ml
MIC E. faecalis ATCC 29212 (E. faecalis ATCC 29212; Table 1): 64 micrograms per ml
MIC E. faecium CT-26 (E. faecium CT-26; Table 1): 4 micrograms per ml
MIC S. pneumoniae ATCC 6301 (S. pneumoniae ATCC 6301): 4 micrograms per ml
M. tuberculosis MIC H37Rv (M. tuberculosis H37Rv): 0.775 µg/mL
MIC S. epidermidis ATCC 12228 ([1]; Table 1): 2 micrograms per ml

Oc1cccc2cccnc12 [Compound 10, 8-hydroxyquinoline]
MIC S. aureus ATCC 29213 (S. aureus ATCC 29213; Table 1): 1 micrograms per ml
MIC E. faecalis ATCC 29212 (E. faecalis ATCC 29212; Table 1): 32 micrograms per ml
MIC E. faecium CT-26 (E. faecium CT-26; Table 1): 4 micrograms per ml
MIC S. pneumoniae ATCC 6301 (S. pneumoniae ATCC 6301): 2 micrograms per ml
M. tuberculosis MIC H37Rv (M. tuberculosis H37Rv): 0.387 µg/mL
MIC S. epidermidis ATCC 12228 ([1]; Table 1): 2 micrograms per ml

C[C@@H](O)[C@H]1C(=O)N2C(C(=O)O)=C(SCCN=CN)C[C@H]12 [Imipenem, reference compound]
MIC (S. aureus ATCC 29213; ATCC29213, Table 1): 0.125 µg/mL (≈ 0.418 µM)
MIC (S. aureus ATCC 29213; ATCC29213, Table 2): 0.12 µg/mL (≈ 0.401 µM)
MIC (E. faecalis ATCC 29212; ATCC29212, Table 1): 1 µg/mL (≈ 3.34 µM)
MIC (E. faecalis ATCC 29212; ATCC29212, Table 2): 1 µg/mL (≈ 3.34 µM)
MIC (H. influenzae ATCC 49766; Haemophilus influenzae, ATCC49766): 2 µg/mL (≈ 6.68 µM)
MIC (E. faecium CT-26; CT26, Table 1): 64 µg/mL (≈ 214 µM)
MIC (E. faecium CT-26; CT26, Table 2): 64 µg/mL (≈ 214 µM)
MIC (S. pneumoniae ATCC 6301; ATCC6301, Table 1, read-out: MIC S. pneumoniae ATCC 6301): 0.125 µg/mL (≈ 0.418 µM)
MIC (S. pneumoniae ATCC 6301; ATCC6301, Table 2, read-out: MIC S. pneumonia ATCC 6301): < 0.125 µg/mL
MIC ([1]; ATCC12228, Table 1): 0.125 µg/mL (≈ 0.418 µM)
MIC ([1]; ATCC12228, Table 2): 0.12 µg/mL (≈ 0.401 µM)
MIC ([2]; Moraxella catarrhalis, ATCC25238, Table 1, read-out: MIC M. catarrhalis ATCC 25238): 0.125 µg/mL (≈ 0.418 µM)

CC1(C)S[C@@H]2[C@H](NC(=O)Cc3ccccc3)C(=O)N2[C@H]1C(=O)O [Pen G, reference compound]
MIC S. aureus ATCC 29213 (S. aureus ATCC 29213; Table 1): 0.5 micrograms per ml
MIC S. aureus ATCC 29213 (S. aureus ATCC 29213; Table 2): 0.5 micrograms per ml
MIC E. faecalis ATCC 29212 (E. faecalis ATCC 29212; Table 1): 1 micrograms per ml
MIC E. faecalis ATCC 29212 (E. faecalis ATCC 29212; Table 2): 1 micrograms per ml
MIC H. influenzae ATCC 49766 (H. influenzae ATCC 49766): 0.12 micrograms per ml
MIC E. faecium CT-26 (E. faecium CT-26; Table 1): 32 micrograms per ml
MIC E. faecium CT-26 (E. faecium CT-26; Table 2): 32 micrograms per ml
MIC S. pneumoniae ATCC 6301 (S. pneumoniae ATCC 6301): 0.125 micrograms per ml
MIC S. pneumonia ATCC 6301 (S. pneumoniae ATCC 6301; Table 2): <0.125 micrograms per ml
MIC S. epidermidis ATCC 12228 ([1]; Table 1): 16 micrograms per ml
MIC S. epidermidis ATCC 12228 ([1]; Table 2): 16 micrograms per ml
MIC M. catarrhalis ATCC 25238 [2]: 0.125 micrograms per ml

CC1COc2c(N3CCN(C)CC3)c(F)cc3c(=O)c(C(=O)O)cn1c23 (stereo not drawn) [Ofloxacin]
MIC (M. tuberculosis H37Rv): 4 µg/mL (≈ 11.1 µM)

Oc1cccc2cccnc12 [Compound 65, 8-hydroxyquinoline]
MIC S. aureus ATCC 29213 (S. aureus ATCC 29213; Table 1): 2 micrograms per ml
MIC E. faecalis ATCC 29212 (E. faecalis ATCC 29212; Table 1): 16 micrograms per ml
MIC E. faecium CT-26 (E. faecium CT-26; Table 1): 4 micrograms per ml
MIC S. pneumoniae ATCC 6301 (S. pneumoniae ATCC 6301): 2 micrograms per ml
M. tuberculosis MIC H37Rv (M. tuberculosis H37Rv): 0.775 µg/mL
MIC S. epidermidis ATCC 12228 ([1]; Table 1): 2 micrograms per ml
MIC M. catarrhalis ATCC 25238 [2]: 4 micrograms per ml

CO[C@H]1/C=C/O[C@@]2(C)Oc3c(C)c(O)c4c(O)c(c(/C=N/N5CCN(C)CC5)c(O)c4c3C2=O)NC(=O)/C(C)=C\C=C\[C@H](C)[C@H](O)[C@@H](C)[C@@H](O)[C@@H](C)[C@H](OC(C)=O)[C@@H]1C [Rifampicin]
MIC (M. tuberculosis H37Rv): < 0.125 µg/mL

Clc1ccc(B(OCc2cnc[nH]2)c2ccc(Cl)cc2)cc1 [Compound 126, Bis(4-Chlorophenyl)borinic acid 4-(hydroxymethyl)imidazole ester]
MIC Candida albicans ATCC 90028 [3]: 1 µg/mL (≈ 3.02 µM)
MIC Microsporum canis ATCC 10214 [4]: 16 µg/mL (≈ 48.3 µM)
MIC Trichophyton mentagrophytes ATCC 10270 [5]: >32 µg/mL
MIC Candida parapsilosis ATCC 22019 [6]: 32 µg/mL (≈ 96.7 µM)
MIC Candida glabrata ATCC 15126 [7]: >32 µg/mL
MIC Aspergillus fumigatus ATCC 204305 [8]: >32 µg/mL

NNC(=O)c1ccncc1 [Isoniazid (INH), Isoniazid]
MIC (M. tuberculosis H37Rv): < 0.062 µg/mL

Oc1cccc2cccnc12 [Compound 51, 8-hydroxyquinoline]
MIC S. aureus ATCC 29213 (S. aureus ATCC 29213; Table 1): 2 micrograms per ml
MIC E. faecalis ATCC 29212 (E. faecalis ATCC 29212; Table 1): 8 micrograms per ml
MIC E. faecium CT-26 (E. faecium CT-26; Table 1): 2 micrograms per ml
M. tuberculosis MIC H37Rv (M. tuberculosis H37Rv): 0.387 µg/mL
MIC S. epidermidis ATCC 12228 ([1]; Table 1): 1 micrograms per ml

Cc1ccc(B(OCc2cn(Cc3ccccc3)cn2)c2ccc(C)c(Cl)c2)cc1Cl [Compound 127, Bis(3-Chloro-4-methylphenyl)borinic acid 1-benzyl-4-(hydroxymethyl)-imidazole ester]
MIC Candida albicans ATCC 90028 [3]: 1 µg/mL (≈ 2.23 µM)
MIC Microsporum canis ATCC 10214 [4]: 16 µg/mL (≈ 35.6 µM)
MIC Trichophyton mentagrophytes ATCC 10270 [5]: 32 µg/mL (≈ 71.2 µM)
MIC Candida parapsilosis ATCC 22019 [6]: 16 µg/mL (≈ 35.6 µM)
MIC Candida glabrata ATCC 15126 [7]: >32 µg/mL
MIC Aspergillus fumigatus ATCC 204305 [8]: >32 µg/mL
